{"source": "paper PMC8901179", "about": "(Journal of medicinal chemistry, 2019)", "key": {"Bmal1-dLuc U2OS cells [1]": {"tested_on": "Bmal1-dLuc U2OS cells", "experiment": "Cell-based circadian assay", "conditions": "for fold more potent than longdaysin (period lengthening): relative to longdaysin"}, "374 kinases": {"tested_on": "374 kinases", "experiment": "Profiling toward 374 kinases", "assay_type": "biochemical", "conditions": "5 μM compound"}, "mouse behavioral rhythms [2]": {"tested_on": "mouse behavioral rhythms", "conditions": "cited from earlier work"}, "Bmal1-dLuc U2OS cells [3]": {"tested_on": "Bmal1-dLuc U2OS cells", "conditions": "cited from earlier work"}, "mouse behavioral rhythms [4]": {"tested_on": "mouse behavioral rhythms", "experiment": "Circadian behavior measurement, infusion into the lateral ventricle", "assay_type": "in vivo, mice", "conditions": "1 mM infusion, constant darkness"}}, "data": [{"smiles": "CC(C)n1cnc2c(NCc3cccc(C(F)(F)F)c3)nc(NCCN(C)C)nc21", "note": "[6a, N2-(2-(Dimethylamino)ethyl)-9-isopropyl-N6-(3-(trifluoromethyl)benzyl)-9H-purine-2,6-diamine]", "values": [{"measurement": "fold more potent than longdaysin (period lengthening)", "setting": "Bmal1-dLuc U2OS cells [1]", "value": "~ 3 fold"}]}, {"smiles": "CC(C)n1cnc2c(NCc3cccc(C(F)(F)F)c3)nc(N3CCC(O)CC3)nc21", "note": "[6d, 1-(9-Isopropyl-6-((3-(trifluoromethyl)benzyl)amino)-9H-purin-2-yl)piperidin-4-ol]", "values": [{"measurement": "period lengthening activity (in words)", "setting": "Bmal1-dLuc U2OS cells [1]", "value": "decreased activity"}]}, {"smiles": "CC(C)n1cnc2c(NCc3cccc(C(F)(F)F)c3)nc(NCCN3CCOCC3)nc21", "note": "[6f, 9-Isopropyl-N2-(2-morpholinoethyl)-N6-(3-(trifluoromethyl)-benzyl)-9H-purine-2,6-diamine]", "values": [{"measurement": "period lengthening activity (in words)", "setting": "Bmal1-dLuc U2OS cells [1]", "value": "decreased activity"}]}, {"smiles": "CC(C)n1cnc2c(NCc3cccc(C(F)(F)F)c3)nc(NCCN)nc21", "note": "[6k, N2-(2-Aminoethyl)-9-isopropyl-N6-(3-(trifluoromethyl)benzyl)-9H-purine-2,6-diamine]", "values": [{"measurement": "period lengthening activity (in words)", "setting": "Bmal1-dLuc U2OS cells [1]", "value": "much less activity compared to 6a"}]}, {"smiles": "CC(C1CC1)n1cnc2c(NCc3cccc(C(F)(F)F)c3)ncnc21", "note": "(stereo not shown) [7a]", "values": [{"measurement": "fold more potent than longdaysin (period lengthening)", "setting": "Bmal1-dLuc U2OS cells [1]", "value": "~ 3 fold"}]}, {"smiles": "CC(C1CC1)n1cnc2c(NCc3cccc(C(F)(F)F)c3)nc(NCCN(C)C)nc21", "note": "(stereo not shown) [7b, 9-(1-Cyclopropylethyl)-N2-(2-(dimethylamino)ethyl)-N6-(3-(trifluoromethyl)benzyl)-9H-purine-2,6-diamine]", "values": [{"measurement": "number of kinases among 374 kinases inhibited by more than 50%", "setting": "374 kinases", "value": 9}, {"measurement": "fold more potent than longdaysin (period lengthening)", "setting": "Bmal1-dLuc U2OS cells [1]", "value": "~ 10 fold"}]}, {"smiles": "CC(C1CC1)n1cnc2c(N(C)Cc3cccc(C(F)(F)F)c3)nc(NCCN(C)C)nc21", "note": "(stereo not shown) [7c, 9-(1-Cyclopropylethyl)-N2-(2-(dimethylamino)ethyl)-N6-methyl-N6-(3-(trifluoromethyl)benzyl)-9H-purine-2,6-diamine]", "values": [{"measurement": "period lengthening activity (in words)", "setting": "Bmal1-dLuc U2OS cells [1]", "value": "dramatic decrease in the period lengthening activity"}]}, {"smiles": "CC(C1CC1)n1cnc2c(OCc3cccc(C(F)(F)F)c3)nc(NCCN(C)C)nc21", "note": "(stereo not shown) [7d, N1-(9-(1-Cyclopropylethyl)-6-((3-(trifluoromethyl)benzyl)oxy)-9H-purin-2-yl)-N2,N2-dimethylethane-1,2-diamine]", "values": [{"measurement": "period lengthening activity (in words)", "setting": "Bmal1-dLuc U2OS cells [1]", "value": "dramatic decrease in the period lengthening activity"}]}, {"smiles": "Nc1nccc(-c2c(-c3ccc(F)cc3)ncn2C2CCCCC2)n1", "note": "[PF-670462]", "values": [{"measurement": "period change in vivo (in words)", "setting": "mouse behavioral rhythms [2]", "value": "only small period change in vivo"}]}, {"smiles": "CC(C)n1cnc2c(NCc3cccc(C(F)(F)F)c3)ncnc21", "note": "[longdaysin]", "values": [{"measurement": "compound concentration for 1 h period lengthening", "setting": "Bmal1-dLuc U2OS cells [3]", "value": 0.3, "unit": "µM"}, {"measurement": "period lengthening of circadian behavior", "setting": "mouse behavioral rhythms [4]", "value": "about 0.05 h"}, {"measurement": "fold more potent than benipurine (1 h period lengthening)", "setting": "Bmal1-dLuc U2OS cells [1]; relative to benipurine", "value": 3, "unit": "fold"}]}]}
